From patent US11000491B2, “Amino-aryl-benzamide compounds and methods of use thereof” (HEPANOVA, INC., priority 2017, dated 2021)
Where two headings read alike, the source gives them in different places.

Experiments:
Assay type in all cases: cell-based
Huh7 cells = assay: LD content in Huh7 cells pre-treated with insulin, Oil-Red-O staining, absorbance OD 540 nm; settings: procedure of Example 3, read-out: LD content inhibition (EC50)
Method in brief: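 Huh7 cells, mock-treated or pre-treated with 1 mM insulin, were then exposed to compound at the indicated amounts. Lipid droplets stained with Oil Red O and quantified by absorbance at OD 540 nm.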

SREBP-1 = SREBP-1 expression in cultured primary human hepatocytes; settings: procedure of Example 6, read-out: SREBP-1 mRNA inhibition (EC50)
Method in brief: (§1)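 Primary human hepatocytes in culture exposed to a range of HPN-01 derivative concentrations; SREBP-1 and SREBP-2 mRNA expression then measured to assess inhibition.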

SREBP-2 = SREBP-2 expression in cultured primary human hepatocytes; settings: procedure of Example 6, read-out: SREBP-2 mRNA inhibition (EC50)
Method in brief: as §1

[1] = Homo sapiens, Huh-7, Huh7 cells

Compound | EC50 (Huh7 cells; [1]) [nM] | EC50 (SREBP-1; Homo sapiens, Hepatocyte) [nM] | EC50 (SREBP-2; Homo sapiens, Hepatocyte) [nM] | EC50 (Huh7 cells; Huh7 cells) [nM] | EC50 (SREBP-1) [nM] | EC50 (SREBP-2) [nM]
COc1ccc(C#Cc2cc(C(N)=O)c(N)c(-c3ccc(S(N)(=O)=O)cc3)c2)cc1 [HPN-01204, 2-amino-5-((4-methoxyphenyl)ethynyl)-4′-sulfamoylbiphenyl-3-carboxamide] | 1010 | 4180 | 4590 | – | – | –
Nc1c(C(=O)Nc2cc[nH]c2)cc(-c2ccc(Cl)cc2)cc1-c1ccc(S(N)(=O)=O)cc1 [HPN-01628, 4′-amino-4-chloro-N-(1H-pyrrol-3-yl)-4″-sulfamoyl-[1,1′:3′,1″-terphenyl]-5′-carboxamide] | 1160 | 2390 | 5480 | – | – | –
Nc1c(C(=O)Nc2ccc(F)c(F)c2)cc(-c2ccc(Cl)cc2)cc1-c1ccc(S(N)(=O)=O)cc1 [HPN-01615, 4′-amino-4-chloro-N-(3,4-difluorophenyl)-4″-sulfamoyl-[1,1′:3′,1″-terphenyl]-5′-carboxamide] | 1150 | 6690 | 11700 | – | – | –
NC(=O)c1cc(-c2ccc(Cl)cc2)cc(-c2ccc(NC(=O)Nc3cccnc3)cc2)c1N [HPN-01429, 4′-amino-4-chloro-4″-(3-(pyridin-3-yl)ureido)-[1,1′:3′,1″-terphenyl]-5′-carboxamide] | 140 | 6690 | 3980 | – | – | –
N=C(N)Nc1ccc(-c2cc(-c3ccc(Cl)cc3)cc(C(N)=O)c2N)cc1 [HPN-01417, 4′-amino-4-chloro-4″-guanidino-[1,1′:3′,1″-terphenyl]-5′-carboxamide] | 1260 | 3150 | 4920 | – | – | –
CNC(=O)c1cc(-c2ccc(Br)cc2)cc(-c2ccc(S(N)(=O)=O)cc2)c1N [HPN-01602, 4′-amino-4-bromo-N-methyl-4″-sulfamoyl-[1,1′:3′,1″-terphenyl]-5′-carboxamide] | 2320 | 3320 | 4730 | – | – | –
CC(C)OC(=O)/C=C/c1cc(C(N)=O)c(N)c(-c2ccc(S(N)(=O)=O)cc2)c1 [HPN-01116, isopropyl (E)-3-(6-amino-5-carbamoyl-4′-sulfamoyl-[1,1′-biphenyl]-3-yl)acrylate] | 1010 | 3740 | 5010 | – | – | –
Nc1c(C(=O)Nc2ccc(O)c(O)c2)cc(-c2ccc(Br)cc2)cc1-c1ccc(S(N)(=O)=O)cc1 [HPN-01618, 4′-amino-4-bromo-N-(3,4-dihydroxyphenyl)-4″-sulfamoyl-[1,1′:3′,1″-terphenyl]-5′-carboxamide] | 1430 | 3570 | 6370 | – | – | –
(E)-2-amino-5-(3-(cyclohexylamino)-3-oxoprop-1-en-1-yl)-4′-sulfamoyl-[1,1′-biphenyl]-3-carboxamide [HPN-01133] | – | – | – | 700 | 2550 | 3070
Cc1ccc(NC(=O)/C=C/c2cc(C(N)=O)c(N)c(-c3ccc(S(N)(=O)=O)cc3)c2)cc1 [HPN-01126, (E)-2-amino-5-(3-oxo-3-(p-tolylamino)prop-1-en-1-yl)-4′-sulfamoyl-[1,1′-biphenyl]-3-carboxamide] | 830 | 2430 | 4540 | – | – | –
NCCC(=O)Nc1c(C(N)=O)cc(-c2ccc(Cl)cc2)cc1-c1ccc(S(N)(=O)=O)cc1 [HPN-01517, 4′-(3-aminopropanamido)-4-chloro-4″-sulfamoyl-[1, 1′:3′,1″-terphenyl]-5′-carboxamide] | 480 | – | – | – | 1960 | 2940
4′-(2-aminoacetamido)-4-chloro-4″-ureido-[1, 1′:3′,1″-terphenyl]-5′-carboxamide [HPN-01518] | – | – | – | 1110 | 2920 | 4860
NC(=O)c1cc(-c2ccc(Cl)cc2)cc(-c2ccc(S(N)(=O)=O)cc2)c1NCc1cccc(Cl)c1 [HPN-01532, 4-chloro-4′-((3-chlorobenzyl)amino)-4″-sulfamoyl-[1,1′:3′,1″-terphenyl]-5′-carboxamide] | 1150 | 2690 | 8600 | – | – | –
